Results taken from patent publication US8158638B2, “Pyrazolopyrimidine derivative” (Daiichi Sankyo Company, Limited, priority 2006, dated 2012).
Read-outs that look alike come from different tables or passages of the source.

Tests used:
[1] = system: human breast cancer cell line SK-BR-3; assay: Cell growth inhibition assay (MTT), SK-BR-3; format: cell-based; settings: Homo sapiens, read-out: GI50 value (50% growth inhibitory concentration)
Protocol: (§1) A cell growth inhibition assay was performed using two types of cells (human breast cancer cell line SK-BR-3 and human lung cancer cell line NCI-H460).
(§2) Cells of each type were suspended in a medium and seeded into a 96-well multi-well plate at 500 cells/150 μl/well. The test compound was dissolved in DMSO, and this was diluted with medium to prepare a sample solution (DMSO concentration: 0.5% or less). On the day following the seeding, 50 μL of DMSO-containing medium to which the test compound was not added (hereinafter called DMSO diluted solution; DMSO concentration: 0.5% or less) or the sample solution was added to the cells. An MTT assay was performed immediately after and 72 hours after adding the sample solution or the DMSO diluted solution to the cells. The MTT assay was performed as follows.
(§3) 5 mg/mL of an MTT (3-(4,5-dimethylthiazol-2-yl)-2,5-diphenyltetrazolium bromide) solution was added at 20 μL per well. Thereafter, the plate was incubated at 37° C. in 5% CO2 for four hours. The plate was centrifuged at 1200 rpm for five minutes, and then the culture supernatant was removed by suction using a dispenser. DMSO was added at 150 μL per well, and the generated formazan was dissolved. The plate was stirred using a plate mixer to uniformly color the respective wells. The absorbance of each well was measured using a plate reader at an OD of 540 nm with a reference of 660 nm.
(§4) T/C (%) for each concentration was determined by the following calculation formula and a dose-response curve was drawn to calculate the 50% growth inhibitory concentration (GI50 value), based on the assumption that the OD value measured immediately after adding the sample solution was S, the OD value measured 72 hours after adding the sample solution was T, and the OD value measured 72 hours after adding the DMSO diluted solution was C. T/C(%)=(T−S)/(C−S)×100

[2] = system: human lung cancer cell line NCI-H460; assay: Cell growth inhibition assay (MTT), NCI-H460; format: cell-based; settings: Homo sapiens, read-out: GI50 value (50% growth inhibitory concentration)
Protocol: as §1, §2, §3, §4

[3] = biological target: T1, recombinant yeast Hsp90 protein (rHsp90) (Saccharomyces cerevisiae, UniProt P02829); assay: Hsp90 ATPase assay; format: biochemical; settings: rHsp90 100 μg/mL, ATP 100 μM, 37° C., two hours, BIOMOL GREEN; read-out: IC50 value (concentration for 50% inhibition of ATP activity)
T1 construct: made in house; host or cells: Escherichia coli
T1 sequence (P02829 whole entry): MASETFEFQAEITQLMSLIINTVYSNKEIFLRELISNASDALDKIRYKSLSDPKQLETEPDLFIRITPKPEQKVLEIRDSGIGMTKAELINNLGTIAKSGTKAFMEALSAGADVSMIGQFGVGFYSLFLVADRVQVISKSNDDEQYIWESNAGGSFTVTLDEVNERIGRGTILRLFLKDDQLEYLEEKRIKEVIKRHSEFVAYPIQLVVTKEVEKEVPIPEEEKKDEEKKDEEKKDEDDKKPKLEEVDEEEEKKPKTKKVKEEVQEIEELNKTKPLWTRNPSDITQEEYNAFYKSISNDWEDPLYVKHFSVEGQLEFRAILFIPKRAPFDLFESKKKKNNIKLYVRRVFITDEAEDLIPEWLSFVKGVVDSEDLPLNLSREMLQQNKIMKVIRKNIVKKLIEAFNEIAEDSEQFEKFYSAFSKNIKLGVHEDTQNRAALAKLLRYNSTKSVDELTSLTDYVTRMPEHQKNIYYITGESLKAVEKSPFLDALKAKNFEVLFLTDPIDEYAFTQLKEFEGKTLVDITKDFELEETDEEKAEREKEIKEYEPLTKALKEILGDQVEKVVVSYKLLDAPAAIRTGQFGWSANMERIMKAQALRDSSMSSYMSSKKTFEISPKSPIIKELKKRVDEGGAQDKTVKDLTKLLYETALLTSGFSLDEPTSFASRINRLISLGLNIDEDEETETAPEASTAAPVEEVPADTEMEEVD
Protocol: An Hsp90 ATPase assay was performed using a recombinant yeast Hsp90 protein (hereinafter called rHsp90). Yeast Hsp90 DNA was cloned from a yeast genomic DNA library according to a conventional method. The cloned yeast Hsp90 DNA was incorporated into a plasmid for expression in Escherichia coli, and the plasmid was expressed in Escherichia coli to obtain rHsp90.
The test compound was dissolved in DMSO to 10 mM. The dissolved solution was diluted with DMSO to eight concentrations ranging in three-fold dilutions from 4 mM. Each diluted solution was further 10-fold diluted with an assay buffer (100 mM Tris, pH 7.4, 20 mM KCl, 6 mM MgCl2) (concentration of each test compound solution: 400 μM, 133 μM, 44.4 μM, 14.8 μM, 4.94 μM, 1.65 μM, 0.549 μM, 0.183 μM; DMSO concentration: 10%).
rHsp90 was dissolved in a TE buffer (20 mM Tris, pH 7.4, 1 mM EDTA) to a concentration of 2.531 mg/mL. The dissolved solution was diluted with assay buffer to 125 μg/mL and dispensed to a 96-well assay plate at 40 μL per well (final concentration: 100 μg/mL).
The test compound solution was dispensed at 5 μL per well, and then the solutions in the respective wells were mixed using a plate mixer. 100 mM ATP (Sigma, Catalog No. A-7699) was diluted with assay buffer to 1 mM and dispensed at 5 μL per well (final concentration: 100 μM). The solutions in the respective wells were mixed using a plate mixer, and then the assay plate was allowed to stand in an incubator set at 37° C. for two hours.
BIOMOL GREEN Reagent (BIOMOL, Catalog No. AK-111) was dispensed at 100 μL per well, and the reaction was terminated. The solutions in the respective wells were mixed by pipetting (three times), and then 34% sodium citrate was dispensed at 10 μL per well. The solutions in the respective wells were mixed by pipetting (three times), and then the assay plate was left to stand at room temperature for 10 minutes. The absorbance at 630 nm of each well was measured with a microplate reader.
The ratio of the absorbance of the test compound-added group to the absorbance of the test compound-free group (T/C value) was determined by the following calculation formula, based on the assumption that the absorbance of the well to which the test compound and rHsp90 were added was A, the absorbance of the well to which only rHsp90 was added was B, and the absorbance of the well to which neither the test compound nor rHsp90 was added was C. T/C=(A−C)/(B−C)
Further, the concentration for 50% inhibition of ATP activity (IC50 value) was calculated using GraphPad Prism 4 (GraphPad Software, Inc.).

Row | Structure (SMILES) | GI50 ([1]; SK-BR-3, MTT assay, 72 hours) [µM] | GI50 ([2]; NCI-H460, MTT assay, 72 hours) [µM] | IC50 [3] [µM] | GI50 ([1]; SK-BR-3, 72 h) [µM] | GI50 ([2]; NCI-H460, 72 h) [µM]
1 | CNC(=O)OC1CSc2nc(N)nc3c2c(nn3Cc2ncc(C)c(OC)c2C)C1 (stereo not drawn) [Example 37, 4-Amino-2-[(4-methoxy-3,5-dimethylpyridin-2-yl)methyl]-2,7,8,9-tetrahydro-6-thia-1,2,3,5-tetraazabenzo[cd]azulen-8-yl methylcarbamate] | 0.307 | 0.411 | 3.3 |  | 
2 | CNC(=O)C1Cc2nn(Cc3ncc(C)c(OC)c3C)c3nc(N)nc(c23)S1 (stereo not drawn) [Example 9, 4-Amino-2-[(4-methoxy-3,5-dimethylpyridin-2-yl)methyl]-N-methyl-7,8-dihydro-2H-6-thia-1,2,3,5-tetraazaacenaphthylene-7-carboxamide] | 0.137 | 0.159 | 1.2 |  | 
3 | COc1c(C)cnc(Cn2nc3c4c(nc(N)nc42)SCC(CCO)=C3)c1C [Example 111, 2-{4-Amino-2-[(4-methoxy-3,5-dimethylpyridin-2-yl)methyl]-2,7-dihydro-6-thia-1,2,3,5-tetraazabenzo[cd]azulen-8-yl}ethanol] |  |  | 0.81 | 0.049 | 0.094
